Test results taken from paper PMC11579209, “Population pharmacokinetics and exposure–response relationships of maribavir in transplant recipients with cytomegalovirus infection” (Journal of Pharmacokinetics and Pharmacodynamics, 2024).
Like-named read-outs stand apart in the source and are kept apart here.

Legend:
[1] = set-up: species or system human; details: in vivo
Procedure: The exposure–response analyses for maribavir were based on data collected from transplant recipients with CMV infections that were refractory to treatment with ganciclovir, valganciclovir, foscarnet, or cidofovir in the phase 3 SOLSTICE study (ClinicalTrials.gov: NCT02931539). SOLSTICE was a multicenter, open-label, active-controlled study in which patients were randomized 2:1 to receive maribavir 400 mg BID or IAT for 8 weeks, with 12 weeks of follow-up. The primary endpoint was confirmed CMV clearance at the end of week 8, and the key secondary endpoint was achievement of CMV clearance and symptom control at the end of week 8, maintained through week 16. TE CMV mutation conferring resistance to maribavir was assessed as an exploratory endpoint. Full details of the SOLSTICE study have been published previously.
Posterior Bayes parameters of the final PopPK model were used to derive rich concentration–time profiles for maribavir. Actual dosing history and factors affecting the PK of maribavir (i.e., body weight and time-varying presence of strong CYP3A4 inhibitors or strong CYP3A4 inducers) were considered in the predictions.
Data set preparation, exploration, visualization of the data and exposure-response analyses were performed using R® (version 4.0.5 for efficacy and resistance analyses; version 4.0.2 for safety analysis) with comprehensive R® archive network (CRAN) and Certara Strategic Consulting (CSC) package. Firth correction on logistic regression was done based on library “logistf”. Logistic regressions with log-linear exposure effect or Emax exposure effect were performed using NONMEM Version VII (version 7.4).
Descriptive statistics were derived for TEAEs, TE serious AEs (SAEs), and TEAEs of special interest during the 8-week treatment phase. Based on the descriptive statistics results, key TEAEs were selected for a formal exposure–response analysis, and exposure parameters of maribavir (AUCday, Cmax.day, Cavg, AUCss, and Cmax.ss) derived from the final PopPK models were merged with retained TEAE. […]

CMV = details: SOLSTICE, maribavir 400 mg BID vs IAT, cited from earlier work
[2] = cited from earlier work
[3] = system: Cytochrome P450 (CYP) 3A4; set-up: method as in PMID 12654667, doi:10.1016/j.bbmt.2018.12.600; details: formation of VP44469; cited from earlier work
[4] = system: Cytochrome P450 (CYP) 1A2; set-up: method as in PMID 12654667, doi:10.1016/j.bbmt.2018.12.600; details: formation of VP44469; cited from earlier work
plasma proteins = system: plasma proteins; set-up: method as in earlier work; details: cited from earlier work
[5] = set-up: method as in PMID 18316526; details: concomitant ketoconazole; cited from earlier work
[6] = set-up: method as in PMID 38009271; details: concurrent rifampin; cited from earlier work

## CC(C)Nc1nc2cc(Cl)c(Cl)cc2n1[C@H]1O[C@@H](CO)[C@H](O)[C@@H]1O [maribavir]
[1]; human
  Relationship between probability of TE SAE and maribavir AUCday, AUCss, Cmax.ss, and Cavg: Statistically significant positive relationships
[1]
  Relationship between probability of fatigue and maribavir exposure PK metrics: Statistically significant positive relationships
  Relationship between probability of taste disturbance and Cavg of maribavir: statistically significant negative relationship
CMV
  Proportion of patients achieving key secondary endpoint (CMV viremia clearance and symptom control at end of week 8, maintained through week 16): 18.7%
CMV; transplant recipients with refractory CMV
  Proportion of patients achieving primary endpoint (confirmed CMV viremia clearance at week 8): 55.7%
[2]; 400 mg BID, transplant recipients with CMV infection
  Time to steady-state exposure: ≤ 2 days
[2]
  PK in patients with mild or moderate hepatic impairment: unaffected
  Renal excretion as share of total clearance of unchanged drug: < 2%
  Systemic exposure in healthy Japanese individuals compared with White individuals: higher
[2]; healthy volunteers
  Mean half-life: 3.0 to 4.8 h
[2]; oral administration
  Median time to maximum plasma concentration (Tmax): 1 to 3 h
[2]; single doses of up to 1600 mg and multiple doses up to 2400 mg per day
  Dose proportionality of PK: dose-proportional
[2]; transplant recipients
  Mean half-life: 4.3 h
[3]
  Share of CYP-mediated metabolism by CYP3A4: 70–85%
[4]
  Share of CYP-mediated metabolism by CYP1A2: 15–30%
Plasma proteins
  Bound to plasma proteins: approximately 98%
[5]
  Increase in maribavir AUC0-∞: 53%
  Increase in maribavir Cmax: 10%
[6]
  Increase in maribavir clearance: 2.5 fold
  Reduction in maribavir AUC: 60%
  Reduction in maribavir half-life: 30%
